In ChEMBL document CHEMBL1141725, “DNA-templated click chemistry for creation of novel DNA binding molecules” (Bioorg Med Chem Lett, 2008):

What was measured:
[1] = Binding affinity to double strand AATT12 DNA by fluorescence titration
[2] = Stabilization of double strand AATT12 DNA assessed as change in melting temperature
[3] = Stabilization of double strand CGCG12 DNA assessed as change in melting temperature
[4] = Binding affinity to double strand CGCG12 DNA by fluorescence titration

| Ks [1] | ΔTm [2] | ΔTm [3] | Ks [4] | Compound |
| --- | --- | --- | --- | --- |
| 0.01 ×10⁵ /M | 0 °C | 0 °C | – | C#CCCCC(=O)N1CCC[C@H]1C(=O)N[C@@H](CCCNC(=N)N)C(=O)NCC(=O)N[C@@H](CCCNC(=N)N)CN1CCC[C@H]1C(N)=O |
| 1.6 ×10⁵ /M | 3.1 °C | 2 °C | 2 ×10⁵ /M | [N-]=[N+]=NCCCNc1c2ccccc2nc2ccccc12 |
| 7.3 ×10⁵ /M | 8.1 °C | 3.9 °C | 3.6 ×10⁵ /M | N=C(N)NCCC[C@@H](CN1CCC[C@H]1C(N)=O)NC(=O)CNC(=O)[C@H](CCCNC(=N)N)NC(=O)[C@@H]1CCCN1C(=O)CCCc1cn(CCCNc2c3ccccc3nc3ccccc23)nn1 |
